# Assays:
# [1] = tested on: diet induced obese Sprague-Dawley rats; test: Anti-obese activity in diet induced obese rats (therapeutic); assay type: in vivo, rat; conditions: 7 mg/kg body weight, 5 weeks after 8 weeks high fat diet, vs control group
# Method: Anti-Obese Activity of Holoptelea integrifolia in Diet Induced Obese Rats.
# Selected healthy Sprague-Dawley rats were randomly assigned to control or various treatment groups (n=6). All the animals allocated for the study were made obese through dietary intervention by feeding high fat diet ad libitum for 8 weeks. After 8 weeks, the treatment group of animals was given oral administration of 250 mg/kg or 500 mg/kg of Holoptelea integrifolia alcohol extract in 10 mL of 0.5% CMC, using gastric tube for 5 week study duration. Sibutramine (7 mg/kg body weight) is used as a positive control. The control group of animals were given 10 ml/kg of 0.5% CMC. Food and water consumption were recorded daily, body weights were recorded weekly and fasting blood samples were collected before initiation after 5th week of the study. The weight gain for different groups compared at weekly intervals (FIG. II).
# [2] = tested on: Sprague-Dawley rats on high fat diet; test: Protective effect against diet induced obesity in rats; assay type: in vivo, rat; conditions: 7 mg/kg body weight, 8 weeks, vs control group
# Method: Protective Effect of Holoptelea integrifolia Against Diet Induced Obesity in Rats.
# Selected healthy Sprague-Dawley rats were randomly assigned to control or various treatment groups (n=6). All the animals allocated for protective phase of the study were on dietary intervention by feeding high fat diet ad libitum and the animals allocated to treatment groups were simultaneously given oral administration of 100 mg or 250 mg/kg Holoptelea integrifolia methanol extract in 10 mL of 0.5% CMC, using gastric tube for the entire 8 week study duration. The test animals of the control group were simultaneously given 10 ml/kg of 0.5% CMC. Sibutramine (7 mg/kg body weight) was used as a positive control. Food and water consumption were recorded daily, body weights were recorded weekly and fasting blood samples were collected before initiation, after 4th week and 8th week (termination) of the study. The weight gain is plotted against the study duration in weeks (FIG. I). […] Upon administration of Holoptelea integrifolia alcohol extract for a period of 60 days, the level of triglyceride in the obese rats was reduced by 50% compared to the control. The levels of serum cholesterol and LDL were reduced by 40% and 45% respectively, whereas the level of HDL was increased by 25%.
compound,measurement,setting,value
CC(C)CC(N(C)C)C1(c2ccc(Cl)cc2)CCC1 (centres unmarked) [Sibutramine],reduction in weight gain,[1],123.1%
same,reduction in weight gain,[2],30.5%

# Reference: patent US9504722B2, “Anti-obese compositions containing holoptelea integrifolia extracts” (Laila Nutraceuticals, priority 2007, dated 2016)
